Patent publication US8063039B2, “3-aminopyrrolidone derivatives” (Newron Pharmaceuticals S.p.A., priority 2003, dated 2011)
Structures can show the parent of a compound that is named as a salt.

O=C1NCC[C@@H]1NCc1ccc(OCc2cccc(F)c2)cc1 (as salt: sulfonic acid salt) [Example 1, (S)-3-[4-(3-Fluorobenzyloxy)-benzylamino]-pyrrolidin-2-one]
melting point: 140.5 to 143.5 °C
